Reference: PMC5719086, “Effective in vivo gene delivery with reduced toxicity, achieved by charge and fatty acid -modified cell penetrating peptide” (Scientific Reports, 2017)
Like-named read-outs stand apart in the source and are kept apart here. Square brackets hold non-standard residues; d marks the D form. Peptide text beside a SMILES is read from it. * marks the point of attachment. Stearoyl = CCCCCCCCCCCCCCCCCC(=O)*; Orn = NCCC[C@H](N)C(=O)O

Legend:
mouse RBC = assay: Hemolysis assay (activity towards cell membranes); format: cell-based; conditions: 1 h 37 °C, triplicates
Protocol: The ability of the peptides to lyse the red blood cells (RBC) in PBS was used as a measure of membrane activity. To obtain fresh mouse RBC, blood was collected from the saphenous vein using sodium-heparinized (80 iu/ml ± 30%) blood collection capillaries (Marienfeld, Germany) and transferred to heparinized blood collecting tubes (Sarstedt, Germany). To isolate RBCs, the whole blood was centrifuged for 15 minutes at 300 × g, followed by removal of the plasma. The RBCs were then washed three times with 1 × PBS (RBC pelleting with 15 minutes at 300 × g). The resulting RBCs were then resuspended in PBS at 4% (v/v).
For the analysis, 200 μl of RBC suspension was added to 200 μl of peptide solution or peptide/pDNA complexes in 5% glucose (final RBC concentration 2%) and gently vortexed. The peptide/pDNA complexes were prepared using a fixed 1 μg of pDNA and varying amount of the peptide. Following this, samples were incubated for 1 hour at 37 °C with gentle stirring. After incubation, the RBCs were pelleted (15 minutes at 300 × g) and the amount of hemoglobin in the supernatant was assessed by measuring the absorbance at 540 nm using a 96-well microplate reader. The experiments were conducted in triplicates.
100% of hemolysis was defined as the RBCs treated with 0.1% Triton-X100 in PBS and 0% was obtained with cells incubated in 5% glucose solution. % of hemolysis was calculated by the formula: % Hemolysis = [(Asample − Aglucose)/Atriton − Aglucose)] × 100.

proteinase K [1] = target: T1, proteinase K (Parengyodontium album, UniProt P06873); assay: Proteinase K treatment of CPP/pDNA complexes; format: in vitro ADME; conditions: 26 °C
T1 construct: purchased Thermo Scientific
Protocol: For the proteinase K treatment, 30 μl of pre-formed CPP/pDNA complex solution (0.3, 0.2, 0.1 and 0.05 µg of pDNA per sample) or CPP in MQ was transferred to a black 96-well plate and 90 µl of MQ was added. After a short period of mixing, fluorescent DNA intercalating dye dilution was added (Quant-iT™ PicoGreen®, ThermoFisher Scientific) and incubated for 5 minutes at room temperature. The fluorescence was measured (Synergy MX, BioTek; λex 492 and λem 535) to quantify the initial accessibility of pDNA. Thereafter 10 μl of Proteinase K (Thermo Scientific) was added with the final enzyme concentration ~2.4 U per well. Fluorescence was measured over an indicated period at 26 °C. The readings were normalized against the fluorescence of free pDNA.

proteinase K [2] = target: T1, proteinase K; format: in vitro ADME
CHO cells = assay: Plasmid delivery (luciferase) assay in cell culture; format: cell-based; conditions: 24-well plate
Protocol: If not indicated otherwise, complexes were formed using 0.5 μg of pDNA (pGL3, Promega, Sweden) mixed with a peptide at indicated charge ratio (N/P, nitrogen-to-phosphate ratio) in MQ water in a final volume of 50 μl. N/P was calculated theoretically and accounted for both the positive charges of the peptide (Table 1) and negative charges of the pDNA. Thereafter, complexes were incubated for 40 minutes at room temperature prior to each experiment.
For the plasmid delivery assay, 4 × 10^4 CHO cells were seeded 24 hours prior to each experiment in 24-well plates. Cells were treated with CPP/pDNA complexes at indicated N/P for 4 h in serum containing media, followed by the addition of 1 ml 10% serum-containing medium and incubated for another 20 hours. Thereafter, cells were washed with 1x PBS and lysed using 100 µl 0.1% Triton X-100 in PBS for 15 min at 4 °C. Luciferase activity was measured using Promega’s luciferase assay system according to the manufacturer’s protocol using a GLOMAX™ 96 microplate luminometer (Promega, Sweden) and normalized to the protein content (BioRad Protein Assay, USA).

BALB/c mice = assay: Side effects / lethality after i.v. injection of complexes; format: in vivo, mouse; conditions: PF14/pDNA at N/P2, i.v., all experiments
Protocol: For in vivo studies, 20–50 µg of p-CMV-Luc2 (marked as pLuc in the text) per animal was mixed with a peptide at indicated N/P in MQ in a final volume of 100 µl. After 40 minutes of incubation, glucose was added to a final 5% glucose in 200 μl and immediately injected intravenously via the tail vein.
Reporter gene expression levels were evaluated post mortem 24 h after injecting the complexes into the tail vein, using male and female BALB/c mice (8-week-old). Each animal received a single 200 μl i.v. injection of the complexes. The mice were sacrificed using cervical dislocation and tissues were harvested and snap-frozen on dry ice. The whole tissues were homogenized using a Precellys®24-Dual homogenization system (Bertin Technologies, France) and lysed using 1 × Promega lysis buffer (Promega, Sweden). The content of luciferase was analyzed as described previously. Briefly, homogenized tissues were thawed and 500 µl of Promega Reporter lysis 1 × buffer was added. The samples were subsequently vortexed for 15 minutes, subjected to three consecutive freeze-thaw cycles (liquid nitrogen and 37 °C water bath), centrifuged for three minutes at 10,000 x g, 4 °C; the supernatant was removed and saved for later analysis. […] Luciferase was measured with Promega luciferase assay system, in combination with GLOMAX 96 microplate luminometer (Promega, Sweden). […]

lungs = conditions: Cy5-labelled pDNA, i.v., 1 h post-injection, confocal microscopy of cryosections
Protocol: The physical accumulation of the complexes were assessed by using Cy5-labeled pDNA (Mirus, USA). Equal amounts of labelled pDNA were administered, regardless of the N/P ratio of the complexes (e.g. N/P4 included 20 μg of labelled pDNA, whereas in case of N/P2, 20 μg of labelled pDNA was mixed with 30 μg of unlabeled pDNA). For the histological evaluation, the lungs were inflated postmortem with 1:1 cryomatrix:PBS (O.C.T embedding matrix, Kaltek, Italy), frozen in 2-methylbutane bath on dry ice. Fresh cryo-sections (10 μm thick) were fixed with ice cold methanol, counterstained with DAPI (AppliChem) and imaged with confocal microscopy (Zeiss LSM710).

[3] = Complex stability in FBS, gel shift assay; conditions: 50% FBS, 37 °C, 48 h, serum and/or triton + heparin dissociation
Protocol: Then the samples were mixed with the DNA loading dye and electrophoresed exactly as stated above in the Gel shift assay description, using 0.1 µg of pDNA per lane. ZipRuler Express DNA Ladder 2 (ThermoFisher Scientific) was added to each gel.
The stability of the complexes after incubation in FBS, visualized by gel shift assay.

T1 sequence (P06873 106-384): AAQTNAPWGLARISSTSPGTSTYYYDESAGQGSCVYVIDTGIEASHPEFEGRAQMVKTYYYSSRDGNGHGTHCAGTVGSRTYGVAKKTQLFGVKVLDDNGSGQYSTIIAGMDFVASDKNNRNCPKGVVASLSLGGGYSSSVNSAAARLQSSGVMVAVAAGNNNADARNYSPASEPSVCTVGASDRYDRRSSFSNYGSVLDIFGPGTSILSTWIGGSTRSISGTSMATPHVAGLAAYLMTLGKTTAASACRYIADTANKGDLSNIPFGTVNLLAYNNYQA

CCCCCCCCCCCCCCCCCC(=O)N[C@@H](C)C(=O)NCC(=O)N[C@@H](Cc1ccc(O)cc1)C(=O)N[C@@H](CC(C)C)C(=O)N[C@@H](CC(C)C)C(=O)NCC(=O)N[C@@H](CCCCN)C(=O)N[C@@H](CC(C)C)C(=O)N[C@@H](CC(C)C)C(=O)N[C@@H](CCCN)C(=O)N[C@@H](CCCN)C(=O)N[C@@H](CC(C)C)C(=O)N[C@@H](C)C(=O)N[C@@H](C)C(=O)N[C@@H](C)C(=O)N[C@@H](C)C(=O)N[C@@H](CC(C)C)C(=O)N[C@@H](CCCN)C(=O)N[C@@H](CCCN)C(=O)N[C@@H](CC(C)C)C(=O)N[C@@H](CC(C)C)C(N)=O [PF14] (Stearoyl-AGYLLGKLL[Orn][Orn]LAAAAL[Orn][Orn]LL-NH2)
EC50 (mouse RBC; naked peptide in 5% glucose, mouse RBC 2% final in PBS, hemoglobin absorbance 540 nm, 100% = 0.1% Triton X-100, read-out: EC50 (μM) of CPP (membrane activity, concentration required to lyse 50% of the cells)): 0.66 µM
EC50 (mouse RBC; peptide/pDNA complexes, fixed 1 μg pDNA and varying peptide, mouse RBC 2% final, absorbance 540 nm, read-out: EC50 (μM) of CPP/pDNA (membrane activity)): 1.43 µM
stability of the complexes against proteinase K (in words) (proteinase K [1]; CPP/pDNA complexes at N/P2, accessible pDNA over time by intercalating dye): less stable particles where DNA was liberated into the solution
Proteinase K: t1/2 (min) of the complexed pDNA (95%CI) (proteinase K [1]; CPP/pDNA complexes at N/P2 in MQ, proteinase K ~2.4 U per well, accessible pDNA by PicoGreen fluorescence, normalized to free pDNA): 108.3 (101.9 ± 118.4) min
degradation of naked peptide by proteinase K (in words) (proteinase K [2]): easily degraded
usable pDNA dose before toxicity, N/P2 (CHO cells; PF14/pDNA N/P2, CHO cells): up to 2 μg
pDNA dose giving maximum transfection before toxicity, N/P4 (CHO cells; PF14/pDNA N/P4, CHO cells): 0.5 μg
usable pDNA dose before toxicity, N/P6 (CHO cells; PF14/pDNA N/P6, CHO cells): 0.125 μg
lethality / side effects, N/P2 (BALB/c mice): zero lethality
accumulation of complexes in lungs, N/P2 (in words) (lungs): significantly lower signal
accumulation of complexes in lungs, N/P4 (in words) (lungs): considerable amount of the fluorescence was observed in lungs
pDNA migration from complexes after 48 h in serum (in words) [3]: migration of pDNA from some of the complexes could be observed
